Assay results from patent publication US20260306640A1, “TECHNOLOGIES TARGETING CELL STATES” (Auron Therapeutics, Inc., priority 2023, published 2026).

Biological target: KAT2A (Homo sapiens, UniProt Q92830)
Assay: KAT2A degradation, Western Blot (Jess), MOLM-13 cells
Format: cell-based
Design: degrader, Western blot
Details: MOLM-13 cells, KAT2A, 24 h, Western Blot, vs DMSO; read-out: KAT2A MOLM-13 DC50
Outline: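 MOLM-13 cells in RPMI 1640/20% FBS were treated with compound for 24 h at 37 °C. RIPA lysates (4 μg) were run on a capillary Western (Jess) with anti-KAT2A antibody and chemiluminescent detection. DC50 comes from percent protein reduction versus DMSO control.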

Chain of KAT2A (Q92830 whole entry): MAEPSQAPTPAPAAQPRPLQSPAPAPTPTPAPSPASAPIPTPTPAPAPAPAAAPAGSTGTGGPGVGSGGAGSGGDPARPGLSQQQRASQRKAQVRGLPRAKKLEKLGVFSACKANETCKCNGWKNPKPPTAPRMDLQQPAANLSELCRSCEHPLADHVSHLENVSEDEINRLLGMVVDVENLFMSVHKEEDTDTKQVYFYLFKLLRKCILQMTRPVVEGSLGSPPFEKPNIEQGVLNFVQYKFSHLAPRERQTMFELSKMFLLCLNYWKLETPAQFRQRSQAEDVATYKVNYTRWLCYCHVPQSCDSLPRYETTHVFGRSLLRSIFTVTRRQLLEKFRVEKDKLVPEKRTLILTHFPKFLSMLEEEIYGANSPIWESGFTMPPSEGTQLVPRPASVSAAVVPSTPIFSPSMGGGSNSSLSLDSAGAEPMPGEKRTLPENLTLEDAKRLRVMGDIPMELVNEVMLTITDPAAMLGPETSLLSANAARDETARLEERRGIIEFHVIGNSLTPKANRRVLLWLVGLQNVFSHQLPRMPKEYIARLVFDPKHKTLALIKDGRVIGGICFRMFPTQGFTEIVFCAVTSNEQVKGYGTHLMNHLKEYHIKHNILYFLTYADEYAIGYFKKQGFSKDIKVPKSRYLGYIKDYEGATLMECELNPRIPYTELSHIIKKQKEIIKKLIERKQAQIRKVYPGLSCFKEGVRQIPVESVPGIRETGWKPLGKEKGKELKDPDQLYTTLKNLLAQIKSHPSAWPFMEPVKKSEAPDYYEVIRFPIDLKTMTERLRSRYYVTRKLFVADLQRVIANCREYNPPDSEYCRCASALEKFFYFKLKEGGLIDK

SMILES | DC50 [nM]
CN1C[C@H](Nc2cnn(C)c(=O)c2Br)C[C@H](c2ccc(COC3CN(c4ccc5c(c4)C(=O)N(C4CCC(=O)NC4=O)C5=O)C3)cc2)C1 (some centres unmarked) [Compound 117] | < 1
CN1C[C@H](Nc2cnn(C)c(=O)c2Br)C[C@H](c2ccc(C(=O)N3CCC4(CCN(CC5CCN(c6ccc7c(c6)C(=O)N(C6CCC(=O)NC6=O)C7=O)CC5)C4)C3)cc2)C1 (some centres unmarked) [Compound 118] | < 1
CN1C[C@H](Nc2cnn(C)c(=O)c2Br)C[C@H](c2ccc(C(=O)N3CCC(Oc4cccc(C5CCC(=O)NC5=O)c4)CC3)cc2)C1 (some centres unmarked) [Compound 119] | 1 to 30
Cc1ccc(OC2CCN(C(=O)c3ccc([C@H]4C[C@@H](Nc5cnn(C)c(=O)c5Br)CN(C)C4)cc3)CC2)cc1C1CCC(=O)NC1=O (some centres unmarked) [Compound 121] | 1 to 30
Cc1ccc(OC2CCN(Cc3ccc([C@H]4C[C@@H](Nc5cnn(C)c(=O)c5Br)CN(C)C4)cc3)CC2)cc1C1CCC(=O)NC1=O (some centres unmarked) [Compound 122] | 1 to 30
CN1C[C@H](Nc2cnn(C)c(=O)c2Br)C[C@H](c2ccc(CN3CCC4(CC3)CN(c3cccc(C5CCC(=O)NC5=O)c3)C4)cc2)C1 (some centres unmarked) [Compound 127] | 1 to 30
CN1C[C@H](Nc2cnn(C)c(=O)c2Br)C[C@H](c2ccc(C(=O)N3CCC4(CC3)CN(c3cccc(C5CCC(=O)NC5=O)c3)C4)cc2)C1 (some centres unmarked) [Compound 128] | 1 to 30
CN1C[C@H](Nc2cnn(C)c(=O)c2C2CC2)C[C@H](c2ccc(CN3CCC(c4ccc5c(c4)CN(C4CCC(=O)NC4=O)C5=O)CC3)cc2)C1 (some centres unmarked) [Compound 129] | 1 to 30
CN1C[C@H](Nc2cnn(C)c(=O)c2Br)C[C@H](c2ccc(CN3CCC(c4ccc5c(c4)C(=O)N(C4CCC(=O)NC4=O)C5=O)C3)cc2)C1 (some centres unmarked) [Compound 130] | 1 to 30
CN1C[C@H](Nc2cnn(C)c(=O)c2Br)C[C@H](c2ccc(C(=O)N3CCC(Oc4ccc(F)c(C5CCC(=O)NC5=O)c4)CC3)cc2)C1 (some centres unmarked) [Compound 131] | 1 to 30
CN1C[C@H](Nc2cnn(C)c(=O)c2Br)C[C@H](c2ccc(CN3CCC(Oc4ccc(F)c(C5CCC(=O)NC5=O)c4)CC3)cc2)C1 (some centres unmarked) [Compound 132] | < 1
CN1C[C@H](Nc2cnn(C)c(=O)c2Br)C[C@H](c2ccc(CN3CCC4(CC3)CN(c3ccc(C5CCC(=O)NC5=O)cc3)C4)cc2)C1 (some centres unmarked) [Compound 133] | 1 to 30
CN1C[C@H](Nc2cnn(C)c(=O)c2Br)C[C@H](c2ccc(CN3CCC4(CC3)CCN(c3cccc(C5CCC(=O)NC5=O)c3)CC4)cc2)C1 (some centres unmarked) [Compound 134] | < 1
CN1C[C@H](Nc2cnn(C)c(=O)c2Br)C[C@H](c2ccc(C(=O)N3CCC4(CC3)CCN(c3cccc(C5CCC(=O)NC5=O)c3)CC4)cc2)C1 (some centres unmarked) [Compound 135] | < 1
CN1C[C@H](Nc2cnn(C)c(=O)c2Br)C[C@H](c2ccc(C(=O)N3CCC(c4ccc(CN5CCC(=O)NC5=O)cc4)CC3)cc2)C1 [Compound 136] | > 30
CN1C[C@H](Nc2cnn(C)c(=O)c2Br)C[C@H](c2ccc(C(=O)N3CCN(c4ccc5c(c4)n(C)c(=O)n5C4CCC(=O)NC4=O)CC3)cc2)C1 (some centres unmarked) [Compound 137] | 1 to 30
CN1C[C@H](Nc2cnn(C)c(=O)c2Br)C[C@H](c2ccc(C(=O)N3CC(c4ccc5c(c4)CN(C4CCC(=O)NC4=O)C5=O)C3)cc2)C1 (some centres unmarked) [Compound 138] | < 1
CN1C[C@H](Nc2cnn(C)c(=O)c2Br)C[C@H](c2ccc(CN3CC(c4ccc5c(c4)CN(C4CCC(=O)NC4=O)C5=O)C3)cc2)C1 (some centres unmarked) [Compound 139] | < 1
CN1C[C@H](Nc2cnn(C)c(=O)c2Br)C[C@H](c2ccc(C(=O)N3CCC(c4cccc(CN5CCC(=O)NC5=O)c4)CC3)cc2)C1 [Compound 140] | > 30
CN1C[C@H](Nc2cnn(C)c(=O)c2Cl)C[C@H](c2ccc(CN3CC(c4ccc5c(c4)CN(C4CCC(=O)NC4=O)C5=O)C3)cc2)C1 (some centres unmarked) [Compound 141] | < 1
CN1C[C@H](Nc2cnn(C)c(=O)c2Br)C[C@H](c2ccc(C(=O)N3CCN(c4cccc5c4n(C)c(=O)n5C4CCC(=O)NC4=O)CC3)cc2)C1 (some centres unmarked) [Compound 142] | 1 to 30
CN1C[C@H](Nc2cnn(C)c(=O)c2Br)C[C@H](c2ccc(C(=O)N3CCN(c4ccc(F)c(C5CCC(=O)NC5=O)c4)CC3)cc2)C1 (some centres unmarked) [Compound 143] | < 1
CN1C[C@H](Nc2cnn(C)c(=O)c2Br)C[C@H](c2ccc(C(=O)N3CC4(CCN(c5ccc(C6CCC(=O)NC6=O)cc5)CC4)C3)cc2)C1 (some centres unmarked) [Compound 144] | < 1
CN1C[C@H](Nc2cnn(C)c(=O)c2Br)C[C@H](c2ccc(C(=O)N3CC4(C3)CN(c3ccc(C5CCC(=O)NC5=O)cc3)C4)cc2)C1 (some centres unmarked) [Compound 147] | 1 to 30
CN1C[C@H](Nc2cnn(C)c(=O)c2Br)C[C@H](c2ccc(C(=O)N3CC4(C3)CN(c3cccc(C5CCC(=O)NC5=O)c3)C4)cc2)C1 (some centres unmarked) [Compound 148] | 1 to 30
CN1C[C@H](Nc2cnn(C)c(=O)c2Br)C[C@H](c2ccc(C(=O)N3CCN(C4CCN(C5CCC(=O)NC5=O)CC4)CC3)cc2)C1 (some centres unmarked) [Compound 149] | 1 to 30
Cc1c(N[C@@H]2C[C@H](c3ccc(CN4CCC(c5ccc6c(c5)CN(C5CCC(=O)NC5=O)C6=O)CC4)cc3)CN(C)C2)cnn(C)c1=O (some centres unmarked) [Compound 150] | < 1

SMILES | DC50 [nM]
CN1C[C@H](Nc2cnn(C)c(=O)c2Br)C[C@H](c2ccc(COc3ccc(C4CCC(=O)NC4=O)cc3)cc2)C1 (some centres unmarked) [Compound 151] | 1 to 30
CN1C[C@H](Nc2cnn(C)c(=O)c2Br)C[C@H](c2ccc(C(=O)N3CCN(c4ccc(F)c(C5CCC(=O)NC5=O)c4)CC3)cc2)C1 (some centres unmarked) [Compound 153] | 1 to 30
CN1C[C@H](Nc2cnn(C)c(=O)c2Br)C[C@H](c2ccc(CN3CC4(CCN(c5ccc(C6CCC(=O)NC6=O)cc5)CC4)C3)cc2)C1 (some centres unmarked) [Compound 154] | < 1
CN1C[C@H](Nc2cnn(C)c(=O)c2Br)C[C@H](c2ccc(CN3CCC4(CC3)CCN(c3ccc(C5CCC(=O)NC5=O)c(F)c3)CC4)cc2)C1 (some centres unmarked) [Compound 156] | < 1
CN1C[C@H](Nc2cnn(C)c(=O)c2Br)C[C@H](c2ccc(CN3CCC4(CC3)CCN(c3ccc(C5CCC(=O)NC5=O)cc3F)CC4)cc2)C1 (some centres unmarked) [Compound 158] | < 1
CN1C[C@H](Nc2cnn(C)c(=O)c2Br)C[C@H](c2ccc(CN3CC4(C3)CN(c3ccc(C5CCC(=O)NC5=O)cc3)C4)cc2)C1 (some centres unmarked) [Compound 159] | 1 to 30
CN1C[C@H](Nc2cnn(C)c(=O)c2Br)C[C@H](c2ccc(CN3CC4(C3)CN(c3cccc(C5CCC(=O)NC5=O)c3)C4)cc2)C1 (some centres unmarked) [Compound 160] | > 30
CN1C[C@H](Nc2cnn(C)c(=O)c2Br)C[C@H](c2ccc(C(=O)N3CCC(N4CCN(C5CCC(=O)NC5=O)CC4)CC3)cc2)C1 (some centres unmarked) [Compound 161] | > 30
CN1C[C@H](Nc2cnn(C)c(=O)c2Cl)C[C@H](c2ccc(C(=O)N3CCC4(CC3)CCN(c3cccc(C5CCC(=O)NC5=O)c3)CC4)cc2)C1 (some centres unmarked) [Compound 163] | < 1
CN1C[C@H](Nc2cnn(C)c(=O)c2Cl)C[C@H](c2ccc(CN3Cc4cc5c(cc4C3)C(=O)N(C3CCC(=O)NC3=O)C5=O)cc2)C1 (some centres unmarked) [Compound 164] | 1 to 30
Cc1ccc(N2CCN(Cc3ccc([C@H]4C[C@@H](Nc5cnn(C)c(=O)c5Br)CN(C)C4)cc3)CC2)cc1C1CCC(=O)NC1=O (some centres unmarked) [Compound 165] | < 1
Cc1cc(N2CCC3(CCN(Cc4ccc([C@H]5C[C@@H](Nc6cnn(C)c(=O)c6Br)CN(C)C5)cc4)CC3)CC2)ccc1C1CCC(=O)NC1=O (some centres unmarked) [Compound 166] | < 1
CN1C[C@H](Nc2cnn(C)c(=O)c2Br)C[C@H](c2ccc(C(=O)N3CCC4(CC3)CCN(c3ccc(F)c(C5CCC(=O)NC5=O)c3)CC4)cc2)C1 (some centres unmarked) [Compound 169] | < 1
CN1C[C@H](Nc2cnn(C)c(=O)c2Cl)C[C@H](c2ccc(CN3CCC4(CC3)CCN(c3cccc(C5CCC(=O)NC5=O)c3)CC4)cc2)C1 (some centres unmarked) [Compound 170] | < 1
C#Cc1c(N[C@@H]2C[C@H](c3ccc(CN4CCC(c5ccc6c(c5)CN(C5CCC(=O)NC5=O)C6=O)CC4)cc3)CN(C)C2)cnn(C)c1=O (some centres unmarked) [Compound 171] | > 30
CN1C[C@H](Nc2cnn(C)c(=O)c2Br)C[C@H](c2ccc(C(=O)N3CCC(c4ccc5c(c4)CN(C4CCC(=O)NC4=O)C5=O)CC3)cc2)C1 (some centres unmarked) [Compound 172] | 1 to 30
CN1C[C@H](Nc2cnn(C)c(=O)c2Br)C[C@H](c2ccc(CN3CCC(c4ccc(OC5CCC(=O)NC5=O)cc4)CC3)cc2)C1 (some centres unmarked) [Compound 173] | 1 to 30
CN1C[C@H](Nc2cnn(C)c(=O)c2Br)C[C@H](c2ccc(CN3CCC4(CC3)CCN(c3ccc(F)c(C5CCC(=O)NC5=O)c3)CC4)cc2)C1 (some centres unmarked) [Compound 174] | < 1
CN1C[C@H](Nc2cnn(C)c(=O)c2Cl)C[C@H](c2ccc(C(=O)N3CCN(c4ccc5c(c4)C(=O)N(C4CCC(=O)NC4=O)C5=O)CC3)cc2)C1 (some centres unmarked) [Compound 176] | < 1
CN1C[C@H](Nc2cnn(C)c(=O)c2Br)C[C@H](c2ccc(C(=O)N3CCN(CC4CCN(C5CCC(=O)NC5=O)CC4)CC3)cc2)C1 (some centres unmarked) [Compound 177] | > 30
Cc1ccc(N2CCC3(CCN(Cc4ccc([C@H]5C[C@@H](Nc6cnn(C)c(=O)c6Br)CN(C)C5)cc4)CC3)CC2)cc1C1CCC(=O)NC1=O (some centres unmarked) [Compound 178] | 1 to 30
Cc1ccc(N2CCC3(CCN(C(=O)c4ccc([C@H]5C[C@@H](Nc6cnn(C)c(=O)c6Br)CN(C)C5)cc4)CC3)CC2)cc1C1CCC(=O)NC1=O (some centres unmarked) [Compound 179] | < 1
CN1C[C@H](Nc2cnn(C)c(=O)c2Br)C[C@H](c2ccc(CN3CCN(c4ccc5c(c4)oc(=O)n5C4CCC(=O)NC4=O)CC3)cc2)C1 (some centres unmarked) [Compound 180] | < 1
CN1C[C@H](Nc2cnn(C)c(=O)c2Br)C[C@H](c2ccc(C(=O)N3CCN(c4ccc5c(c4)oc(=O)n5C4CCC(=O)NC4=O)CC3)cc2)C1 (some centres unmarked) [Compound 181] | 1 to 30
CN1C[C@H](Nc2cnn(C)c(=O)c2Br)C[C@H](c2ccc(CN3CC(Oc4ccc(C5CCC(=O)NC5=O)cc4)C3)cc2)C1 (some centres unmarked) [Compound 182] | < 1
CN1C[C@H](Nc2cnn(C)c(=O)c2Br)C[C@H](c2ccc(C(=O)N3CC(Oc4ccc(C5CCC(=O)NC5=O)cc4)C3)cc2)C1 (some centres unmarked) [Compound 183] | 1 to 30
